# Earlier results as cited in US20220378840A1, “COMPOSITIONS, KITS AND METHODS FOR STORAGE OF BLOOD PRODUCTS AND METHODS OF USE THEREOF” (Rutgers, The State University of New Jersey, priority 2019, published 2022).
# Legend:
# RBCs [1] = details: 6% concentration L-carnitine
# RBCs [2] = details: prolonged incubation in 3% L-carnitine
# cells = details: 6% concentration HES
# hemorrhagic shock = details: 6% concentration HES
Compound,recovery of RBCs (RBCs [1]),toxicity on prolonged incubation (RBCs [2]),cell survival during freezing and thawing (cells),oxidative stress and inflammatory response in hemorrhagic shock (hemorrhagic shock)
C[N+](C)(C)C[C@H](O)CC(=O)[O-] [L-carnitine],80%,non-toxic,,
Hydroxyethyl starch [HES],,,improves cell survival,reduces oxidative stress and inflammatory response
